Numbering of substitutions follows the chain as printed.
Assays:
[1] = target: T1, hAGT (human O^6-alkylguanine-DNA alkyltransferase) (Homo sapiens, UniProt P16455); experiment: hAGT labeling kinetics via microplate reader (FP over time); format: biochemical
T1 construct: StrepTag-II (N); enterokinase cleavage site (N); His10 (C); made in house; host or cells: E. coli BL21(DE3)-pLysS
T1 sequence (P16455 1-207): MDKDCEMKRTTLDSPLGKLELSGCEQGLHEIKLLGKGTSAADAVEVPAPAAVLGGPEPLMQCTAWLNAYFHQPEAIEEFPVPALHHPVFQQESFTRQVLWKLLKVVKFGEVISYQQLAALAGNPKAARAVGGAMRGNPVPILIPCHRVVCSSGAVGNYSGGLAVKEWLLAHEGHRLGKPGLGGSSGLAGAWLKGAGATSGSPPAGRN
Protocol: (§1) Labeling kinetics of SNAP and CLIP substrates were measured by recording FP over time using a microplate reader in a manner analogous to that of HT7 labeling kinetics described above with the following changes. The fluorescent substrate concentration was fixed to 20 nM, and protein concentrations were varied from 15 to 900 nM. Measurements were performed in SNAP-FP buffer.
(§2) Kinetic data from microplate reader assays were fitted to a simplified kinetic model (eq 13) described by differential eqs 14–16 using DynaFit. The dead time of the measurements and baseline FP value were put in as fixed parameters. Standard deviations (normal distribution verified) and confidence intervals of fitted parameters were estimated with the Monte Carlo method with standard settings (N = 1000, 5% worst fits discarded). In the case of BG, CP, and BC kinetics, the substrate concentration was fitted by DynaFit to rule out quantification errors of the BG, CP, or BC fluorophores. Accurate fitting of the concentration was ensured by including conditions under which protein is limiting and no maximum FP value was reached.

CLIP-tag (CLIP) = target: T2, CLIP-tag (CLIP) (Homo sapiens, UniProt P16455, A121V/A127T/A154D/C150Q/C62A/G131N/G132T/G153S/K125A/K32I/L33F/M134L/M60I/N157P/Q115S/Q116H/R128A/R135D/S151G/S152D/S159L/Y114E); experiment: CLIP labeling kinetics via microplate reader (FP over time); format: biochemical; conditions: CLIP, plate reader, kinetic model 1
T2 construct: made in house; host or cells: E. coli BL21(DE3)-pLysS
T2 sequence (P16455 1-182 K32I/L33F/M60I/C62A/Y114E/Q115S/Q116H/A121V/K125A/A127T/R128A/G131N/G132T/M134L/R135D/C150Q/S151G/S152D/G153S/A154D/N157P/S159L limits assumed): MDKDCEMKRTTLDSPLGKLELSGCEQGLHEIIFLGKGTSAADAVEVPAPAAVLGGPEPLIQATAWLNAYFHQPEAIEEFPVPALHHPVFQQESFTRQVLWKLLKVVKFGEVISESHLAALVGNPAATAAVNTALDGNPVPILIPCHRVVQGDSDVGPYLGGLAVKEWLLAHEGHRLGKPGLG
Protocol: as §1, §2

SNAP-tag (SNAP) [2] = target: T3, SNAP-tag (SNAP) (Homo sapiens, UniProt P16455, A127T/A154D/C150Q/C62A/G131K/G132T/G153L/K125A/K32I/L33F/M134L/N157G/Q115S/Q116H/R128A/R135S/S151G/S152D/S159E); experiment: SNAP labeling kinetics via microplate reader (FP over time); format: biochemical; conditions: SNAP, plate reader, kinetic model 1
T3 construct: made in house; host or cells: E. coli BL21(DE3)-pLysS
T3 sequence (P16455 1-182 K32I/L33F/C62A/Q115S/Q116H/K125A/A127T/R128A/G131K/G132T/M134L/R135S/C150Q/S151G/S152D/G153L/A154D/N157G/S159E limits assumed): T2 sequence (P16455 1-182 K32I/L33F/M60I/C62A/Y114E/Q115S/Q116H/A121V/K125A/A127T/R128A/G131N/G132T/M134L/R135D/C150Q/S151G/S152D/G153S/A154D/N157P/S159L limits assumed) with I60M, E114Y, V121A, N131K, D135S, S153L, P157G, L159E
Protocol: as §1, §2

SNAP-tag (SNAP) [3] = target: T3, SNAP-tag (SNAP); experiment: SNAP labeling kinetics via stopped flow (fluorescence anisotropy); format: biochemical; conditions: model 2
Protocol: Labeling kinetics of SNAP with BG-TMR were measured via stopped-flow in a manner analogous to that for HT7 kinetics described above; however, the final substrate concentration was fixed at 2 μM, and the protein concentration was varied from 1.875 to 50 μM. The activity buffer was supplemented with 1 mM DTT.
Kinetic stopped-flow data were preprocessed using a custom R script.[36],[37] Recorded pretrigger time points were removed, and time points were adjusted to start at time zero. Values from replicates were averaged. The anisotropy of the free dye was calculated by averaging anisotropy values of the baseline measurements. Preprocessed data were fitted to a kinetic model (eqs 5 and 6) described by differential eqs 7–10 using the DynaFit software.[38] The anisotropy of the free dye and the mixing delay of the stopped-flow machine were set as fixed offset and delay parameters in DynaFit. It was assumed that the protein substrate complex and the reacted product are contributing equally to the anisotropy signal. […] Standard deviations (normal distribution verified) and confidence intervals of fitted parameters were estimated with the Monte Carlo method[39] with standard settings (N = 1000, 5% worst fits discarded). In the case of SNAP kinetics with BG-TMR, the substrate concentration was fitted by DynaFit to rule out quantification errors of the BG-quenched fluorophore. Accurate fitting of the concentration was ensured by including conditions in which protein is limiting and no maximum FP value was reached.

SNAP^C145A = target: T4, SNAP^C145A (Homo sapiens, UniProt P16455, A127T/A154D/C145A/C150Q/C62A/G131K/G132T/G153L/K125A/K32I/L33F/M134L/N157G/Q115S/Q116H/R128A/R135S/S151G/S152D/S159E); experiment: Affinity of SNAP^C145A for nonfluorescent substrates via FP competition assay against CP-TMR; format: binding; conditions: for Kd: FP competition against CP-TMR, room temperature
T4 construct: made in house; host or cells: E. coli BL21(DE3)-pLysS
T4 sequence (P16455 1-182 K32I/L33F/C62A/Q115S/Q116H/K125A/A127T/R128A/G131K/G132T/M134L/R135S/C145A/C150Q/S151G/S152D/G153L/A154D/N157G/S159E limits assumed): T2 sequence (P16455 1-182 K32I/L33F/M60I/C62A/Y114E/Q115S/Q116H/A121V/K125A/A127T/R128A/G131N/G132T/M134L/R135D/C150Q/S151G/S152D/G153S/A154D/N157P/S159L limits assumed) with I60M, E114Y, V121A, N131K, D135S, C145A, S153L, P157G, L159E
Protocol: Binding affinities of SNAP^C145A for BG, CP, BG-Ac, CP-Ac, and BC-Ac were obtained as previously described for HT7 by titrating 5 μM protein and 50 nM CP-TMR against nonfluorescent substrate concentrations ranging from 150 nM to 1.5 mM. Experimental conditions and data analysis were identical despite the fact that 1 mM DTT was added to the buffer and the assay was performed at room temperature.

SNAP-tag (SNAP) [4] = target: T3, SNAP-tag (SNAP); experiment: SNAP competitive labeling kinetics against BG-Alexa488; format: biochemical; conditions: nonfluorescent substrates, competition with BG-Alexa488
Protocol: Competitive kinetics were measured by recording FP over time using a microplate reader in a manner analogous to that for HT7 competition kinetics described above using 100 nM BG-Alexa488 as the fluorescent substrate in SNAP-FP buffer.
Data were fitted to a simplified kinetic competition model (eqs 19 and 20) described by differential eqs 21–25 using DynaFit. The dead time of the measurements and baseline FP value were put in as fixed parameters. Standard deviations (normal distribution verified) and confidence intervals of fitted parameters were estimated with the Monte Carlo method with standard settings (N = 1000, 5% worst fits discarded). [drawing 19] 19 [drawing 20] 20 where P is the SLP protein, S is the fluorescent SLP substrate, I is the nonfluorescent SLP substrate (inhibitor), PS is the protein–fluorescent substrate conjugate, and PI is the protein–nonfluorescent substrate conjugate. [drawing 21] 21 [drawing 22] 22 [drawing 23] 23 [drawing 24] 24 [drawing 25] 25

Row | times slower labeling of hAGT than of SNAP ([1]; hAGT vs SNAP) [times] | kapp (value ± standard deviation) ([1]; hAGT, plate reader, model 1) | kapp (value ± standard deviation) (CLIP-tag (CLIP)) | kapp (value ± standard deviation) (SNAP-tag (SNAP) [2]) | fold higher k–1 than BG-TMR (SNAP-tag (SNAP) [3]) [fold] | k2 (± S.D.) (SNAP-tag (SNAP) [3]) | k-1 (± S.D.) (SNAP-tag (SNAP) [3]) | times lower affinity than for BG-Ac (SNAP^C145A) [times] | Kd (SNAP^C145A) [µM] | kapp (value ± standard deviation) (SNAP-tag (SNAP) [4]) | SMILES
1 | 20 | (3.13 ± 0.01) × 10^3 M^–1 s^–1 | (7.22 ± 0.04) × 10^0 M^–1 s^–1 | (7.69 ± 0.01) × 10^4 M^–1 s^–1 | 8.8 | 1.58 (± 0.04) s-1 | 8.96 (± 0.71) s-1 |  |  |  | CN(C)c1ccc2c(-c3cc(C(=O)NCc4ccc(COc5cc(Cl)nc(N)n5)cc4)ccc3C(=O)[O-])c3ccc(=[N+](C)C)cc-3oc2c1 [CP-TMR]
2 |  |  |  |  |  |  |  | 5 | 416 |  | CC(=O)NCc1ccc(COc2nccc(N)n2)cc1 [BC-Ac]
3 |  |  |  |  |  |  |  |  | 201 | (3.45 ± 0.38) × 10^3 M^–1 s^–1 | CC(=O)NCc1ccc(COc2cc(Cl)nc(N)n2)cc1 [CP-Ac]

Source: article PMC8388125, “Kinetic and Structural Characterization of the Self-Labeling Protein Tags HaloTag7, SNAP-tag, and CLIP-tag” (Biochemistry, 2021)
